The structures appear in SMILES notation. “And” between values parts separate entries of the source, which are not always exact repeats. Equal entries are not always repeated.

The values that follow come from patent US10640457B2, “Histone acetyltransferase activators and uses thereof” (The Trustees of Columbia University in the City of New York, priority 2009, dated 2020).

For data set [1], the target named is T1, Sirtuin 1 (Homo sapiens, UniProt Q96EB6).
T1 sequence (Q96EB6 1-747): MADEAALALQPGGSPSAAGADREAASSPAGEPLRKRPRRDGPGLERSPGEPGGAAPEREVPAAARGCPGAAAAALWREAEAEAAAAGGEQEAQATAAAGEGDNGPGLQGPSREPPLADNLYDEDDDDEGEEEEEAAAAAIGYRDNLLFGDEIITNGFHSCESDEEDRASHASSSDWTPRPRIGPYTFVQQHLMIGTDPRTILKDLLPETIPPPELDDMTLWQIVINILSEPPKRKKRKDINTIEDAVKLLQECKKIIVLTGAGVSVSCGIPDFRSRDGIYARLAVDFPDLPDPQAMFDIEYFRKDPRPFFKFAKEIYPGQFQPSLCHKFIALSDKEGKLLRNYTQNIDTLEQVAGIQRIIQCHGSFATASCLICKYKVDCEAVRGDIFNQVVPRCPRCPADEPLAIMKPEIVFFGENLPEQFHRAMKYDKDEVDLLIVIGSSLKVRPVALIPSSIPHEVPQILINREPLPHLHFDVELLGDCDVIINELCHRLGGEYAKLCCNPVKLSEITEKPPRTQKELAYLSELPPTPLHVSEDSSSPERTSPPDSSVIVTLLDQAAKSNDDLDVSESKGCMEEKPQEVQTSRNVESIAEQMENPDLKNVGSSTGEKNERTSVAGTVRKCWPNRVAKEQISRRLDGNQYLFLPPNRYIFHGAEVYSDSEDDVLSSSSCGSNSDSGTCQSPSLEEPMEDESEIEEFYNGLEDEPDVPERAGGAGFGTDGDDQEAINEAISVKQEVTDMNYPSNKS
The experiment in a line: Sirtuin 1 fluorogenic activity assay. Conditions: for % Activity: Repeat1/Repeat2, listed as OA2.

Data set [2] concerns the target T2, HDAC8 (Homo sapiens, UniProt Q9BY41).
T2 sequence (Q9BY41 1-377): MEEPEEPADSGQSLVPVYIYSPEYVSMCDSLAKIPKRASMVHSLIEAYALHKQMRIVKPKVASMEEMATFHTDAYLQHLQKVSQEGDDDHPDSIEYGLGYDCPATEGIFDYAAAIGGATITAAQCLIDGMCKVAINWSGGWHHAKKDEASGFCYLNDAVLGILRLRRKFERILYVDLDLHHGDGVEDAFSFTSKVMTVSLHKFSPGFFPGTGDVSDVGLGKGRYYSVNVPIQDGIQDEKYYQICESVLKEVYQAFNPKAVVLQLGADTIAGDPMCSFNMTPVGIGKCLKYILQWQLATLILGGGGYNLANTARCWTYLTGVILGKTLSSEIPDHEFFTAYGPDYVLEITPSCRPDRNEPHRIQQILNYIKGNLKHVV
The experiment in a line: HDAC8 fluorogenic activity assay. Conditions: for % Activity: Repeat1/Repeat2, listed as OA2.

For data set [3] the following is noted: in vivo, ip.

Broadly, the IC50 is the concentration that inhibits the measured activity by half. A low value points to inhibition by little substance. As for `CCOc1cccc(OCCN(C)C)c1C(=O)Nc1ccc(Cl)c(C(F)(F)F)c1` [YF2], the half-inhibitory concentration (IC50) in data set [1] and in data set [2] was > 200 µM each time. In addition, the “% Activity” value in data set [1] (OA2 Log[nM] 0.5) is 94.26% and 99.92%; in data set [1] (OA2 Log[nM] 1.0), 87.25% and 99.42%; in data set [1] (OA2 Log[nM] 1.5), 100.27% and 87.48%; in data set [1] (OA2 Log[nM] 2.0), 97.98% and 92.56%; in data set [1] (OA2 Log[nM] 2.5) it was 101.56% and 100.81%; in data set [1] (OA2 Log[nM] 3.0), 108.86% and 94.87%. The “% Activity” value in data set [1] (OA2 Log[nM] 3.5) is 96.93% and 100.23%; in data set [1] (OA2 Log[nM] 4.0) it was 96.69% and 89.85%; in data set [1] (OA2 Log[nM] 4.5), 98.83% and 93.79%; in data set [1] (OA2 Log[nM] 5.3) it was 99.02% and 100.98%; in data set [2] (OA2 Log[nM] 0.5), 101.88% and 103.15%; in data set [2] (OA2 Log[nM] 1.5) it was 102.04%. The “% Activity” value in data set [2] (OA2 Log[nM] 2.0) is 108.80%; in data set [2] (OA2 Log[nM] 3.0) it was 84.45%; in data set [2] (OA2 Log[nM] 3.5), 109.88%; in data set [2] (OA2 Log[nM] 4.5), 85.17% and 86.60%; in data set [2] (OA2 Log[nM] 5.3), 58.33% and 105.63%. In data set [3], the “dose up to which no adverse effects were induced” value is “up to 300 mg/kg”.
